Measured values: PubChem BioAssay AID1919016 (Molecular Pharmacology Branch, DTP, NCI, 2023)

Test system: NCI-H196 complex spheroid growth, percent test/control
Test: Anticancer human tumor NCI-H196 cell line growth inhibition [AhR];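 note: seven days of drug exposure starting three days after plating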;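 for viability, T/C: 100% = DMSO vehicle control wells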
Conditions: for IC50: curve of first compound; for viability, T/C: stronger effect = lower value
Excerpt: Multicellular complex tumor spheroid response to aryl hydrocarbon receptor antagonists in combination with a variety of drugs and investigational agents in selected tumor cell lines
The current study was undertaken to assess response to aryl hydrocarbon receptor antagonists in combination with standard-of-care drugs and investigational agents in solid tumor complex spheroid models. Complex spheroids include a stromal component modeled by human endothelial cells (HUVEC) and fibroblasts modeled by human mesenchymal stem cells (MSCs). The concentration ranges selected for each drug and investigational agent were based upon clinically achievable concentrations if the clinical Cmax of the agent was known.
Compounds. The drugs and investigational agents: BAY 2416964 (NSC825713), GNF351 (NSC835774), CH-223191 (NSC835775), CPI-455 (NSC825282), aza-TdCyd (NSC777586), decitabine (NSC127716), belinostat (NSC758774), entinostat (NSC756642), pevonedistat (NSC761192), tazemetostat (NSC777109), talazoparib (NSC765396), olaparib (NSC753686), selinexor (NSC780203), nedisertib (M3814, NSC802822), bortezomib (NSC756655), venetoclax (NSC766270), doxorubicin (NSC123127), elimusertib (BAY189344, NSC800525), ceralasertib (AZD6738, NSC777638), TAK-243 (NSC785004), alisertib (NSC759677), etoposide (NSC141540), topotecan (NSC609699), eribulin (NSC707389), gemcitabine (NSC613327), carboplatin (NSC241240), cisplatin (NSC119875), and SN-38 (NSC673596) were obtained from the National Cancer Institute (NCI) Developmental Therapeutics Program Chemical Repository (32). The FDA-approved anticancer drug set is available from the Developmental Therapeutics Program at https://dtp.cancer.gov/organization/dscb/obtaining/available plates.htm. […] The stock solutions were prepared in dimethyl sulfoxide (DMSO, Sigma-Aldrich, St. Louis, MO, cat. D2650), except for the platinum compounds which were prepared in saline (Quality Biological, Gaithersburg, MD, cat. 114-055-101), at 800-fold the tested concentration and stored at -70 degrees C prior to their use. All drugs and investigational agents were tested over a range starting from a high concentration at or near the clinical Cmax and decreasing in half-log increments. If the clinical Cmax for an agent had not been determined, the highest concentration tested was 10 microM (Table 1).
Cell Culture. All cells were maintained in an incubator at 37 degrees C and 5% CO2 with 95% humidity. The PDC lines were cultured according to standard operating procedures established by the NCI PDMR (https://pdmr.cancer.gov). Briefly, all PDCs were thawed and cultured in Matrigel-coated flasks prepared with a working solution of 1X Ham's F-12 nutrient mix, without supplementation (Invitrogen, Waltham, MA, cat. 11765054), 100 U/mL penicillin-streptomycin (Invitrogen, cat. 15140122), and 2.5% Matrigel (Corning Inc., Corning, NY, cat. 354248) for the first three passages. All PDCs were cultured in complete DMEM/F-12 media containing advanced DMEM/F-12 (Invitrogen, cat. 12634028), 4.9% defined fetal bovine serum, heat inactivated (HyClone Laboratories Inc., Logan, UT, cat. SH30070.03HI), 389 ng/mL hydrocortisone (Sigma-Aldrich, cat. H4001), 9.7 ng/mL human EGF recombinant protein (Invitrogen, cat. PHG0313), 23.4 microg/mL adenine (Sigma-Aldrich, cat. A2786), 97.3 U/mL penicillin-streptomycin (Invitrogen, cat. 15140122), 1.9 mM L-glutamine (Invitrogen, cat. 25030081), and 9.7 microM Y-27632 dihydrochloride (Tocris Bioscience, Bristol, United Kingdom, cat. 1254). The PDCs were cultured in complete DMEM/F12 media without 10 microM Y-27632 dihydrochloride for at least two passages prior to the screen. The established cell lines NCI-H1341 and […] were cultured in DMEM/F-12, HEPES (Invitrogen, cat. 11330032), 5% defined fetal bovine serum (HyClone Laboratories Inc., cat. SH30070.03), ITS premix universal culture supplement [insulin (5 microg/mL), transferrin (5 microg/mL), and selenious acid (5 ng/mL)] […]

[1] = second compound 0.1 µM, first compound 0.0316 µM
[2] = second compound 0.1 µM, first compound 0.1 µM
[3] = second compound 0.1 µM, first compound 0.316 µM
[4] = second compound 0.1 µM, first compound 1 µM
[5] = second compound 0.1 µM, first compound 3.16 µM
[6] = second compound 0.1 µM, first compound 10 µM
[7] = second compound 0.316 µM, first compound 0.0316 µM
[8] = second compound 0.316 µM, first compound 0.1 µM
[9] = second compound 0.316 µM, first compound 0.316 µM
[10] = second compound 0.316 µM, first compound 1 µM
[11] = second compound 0.316 µM, first compound 3.16 µM
[12] = second compound 0.316 µM, first compound 10 µM
[13] = second compound 1 µM, first compound 0.0316 µM
[14] = second compound 1 µM, first compound 0.1 µM
[15] = second compound 1 µM, first compound 0.316 µM
[16] = second compound 1 µM, first compound 1 µM
[17] = second compound 1 µM, first compound 3.16 µM
[18] = second compound 1 µM, first compound 10 µM
[19] = second compound 3.16 µM, first compound 0.0316 µM
[20] = second compound 3.16 µM, first compound 0.1 µM
[21] = second compound 3.16 µM, first compound 0.316 µM
[22] = second compound 3.16 µM, first compound 1 µM
[23] = second compound 3.16 µM, first compound 3.16 µM
[24] = second compound 3.16 µM, first compound 10 µM
[25] = second compound 10 µM, first compound 0.0316 µM
[26] = second compound 10 µM, first compound 0.1 µM
[27] = second compound 10 µM, first compound 0.316 µM
[28] = second compound 10 µM, first compound 1 µM
[29] = second compound 10 µM, first compound 3.16 µM
[30] = second compound 10 µM, first compound 10 µM

Row | SMILES | IC50 (second compound 0.1 µM) [nM] | IC50 (second compound 0.316 µM) [nM] | IC50 (second compound 1 µM) [nM] | IC50 (second compound 3.16 µM) [nM] | IC50 (second compound 10 µM) [nM] | viability, T/C [1] [%] | viability, T/C [2] [%] | viability, T/C [3] [%] | viability, T/C [4] [%] | viability, T/C [7] [%] | viability, T/C [8] [%] | viability, T/C [9] [%] | viability, T/C [10] [%] | viability, T/C [13] [%] | viability, T/C [14] [%] | viability, T/C [15] [%] | viability, T/C [16] [%] | viability, T/C [19] [%] | viability, T/C [20] [%] | viability, T/C [21] [%] | other results
1 | COc1cc(C2c3cc4c(cc3C(OC3OC5COC(C)OC5C(O)C3O)C3COC(=O)C23)OCO4)cc(OC)c1O (stereo not given) + CC(CO)NC(=O)c1cc(-c2ccc(Cl)cc2)nn(-c2cnn(C)c2)c1=O | > 10000 | > 10000 | > 10000 | > 10000 | > 10000 | 113 | 116 | 101 | 112 | 109 | 118 | 102 | 104 | 117 | 106 | 119 | 106 | 103 | 110 | 119 | viability, T/C [5]: 104%; viability, T/C [6]: 101%; viability, T/C [11]: 109%; viability, T/C [12]: 94.9%; viability, T/C [17]: 110%; viability, T/C [18]: 105%; viability, T/C [22]: 110%; viability, T/C [23]: 117%; viability, T/C [24]: 97.9%; viability, T/C [25]: 126%; viability, T/C [26]: 128%; viability, T/C [27]: 114%; viability, T/C [28]: 109%; viability, T/C [29]: 115%; viability, T/C [30]: 95.6%
2 | COc1cccc2c1C(=O)c1c(O)c3c(c(O)c1C2=O)CC(O)(C(=O)CO)CC3OC1CC(N)C(O)C(C)O1 (stereo not given) + CC(CO)NC(=O)c1cc(-c2ccc(Cl)cc2)nn(-c2cnn(C)c2)c1=O | 943 | 1080 | 967 | 895 | 732 | 109 | 105 | 85.6 | 52.8 | 102 | 116 | 100 | 53.8 | 110 | 116 | 101 | 49.6 | 113 | 110 | 104 | viability, T/C [5]: 1.78%; viability, T/C [6]: 0.87%; viability, T/C [11]: 1.55%; viability, T/C [12]: 1.77%; viability, T/C [17]: 1.06%; viability, T/C [18]: 2.36%; viability, T/C [22]: 44.4%; viability, T/C [23]: 0.77%; viability, T/C [24]: 1.04%; viability, T/C [25]: 119%; viability, T/C [26]: 122%; viability, T/C [27]: 89.9%; viability, T/C [28]: 36.6%; viability, T/C [29]: 0.56%; viability, T/C [30]: 2.67%
3 | Nc1ncn(C2CC(O)C(CO)O2)c(=O)n1 (stereo not given) + CC(CO)NC(=O)c1cc(-c2ccc(Cl)cc2)nn(-c2cnn(C)c2)c1=O | > 1000 | > 1000 | > 1000 | > 1000 | > 1000 | 105 | 106 | 120 | 126 | 114 | 107 | 114 | 120 | 128 | 108 | 110 | 115 | 120 | 104 | 121 | viability, T/C (second compound 0.1 µM, first compound 0.00316 µM): 112%; viability, T/C (second compound 0.1 µM, first compound 0.01 µM): 117%; viability, T/C (second compound 0.316 µM, first compound 0.00316 µM): 107%; viability, T/C (second compound 0.316 µM, first compound 0.01 µM): 116%; viability, T/C (second compound 1 µM, first compound 0.00316 µM): 120%; viability, T/C (second compound 1 µM, first compound 0.01 µM): 118%; viability, T/C (second compound 3.16 µM, first compound 0.00316 µM): 126%; viability, T/C (second compound 3.16 µM, first compound 0.01 µM): 130%; viability, T/C [22]: 115%; viability, T/C (second compound 10 µM, first compound 0.00316 µM): 141%; viability, T/C (second compound 10 µM, first compound 0.01 µM): 119%; viability, T/C [25]: 137%; viability, T/C [26]: 114%; viability, T/C [27]: 133%; viability, T/C [28]: 116%
